Measurements: US20250320213A1, “Nitrogen-Containing Heterocyclic Compounds” (Pfizer Inc., priority 2024, published 2025)

Columns and labels:
[1] = test system: CCL17 secretion in peripheral human whole blood; test: Human Whole Blood (HWB) CCL17 TR-FRET Assay (IL-13 stimulated CCL17 secretion); type: cell-based; details: inhibition of CCL17 secretion in human whole blood, 10 ng/mL IL13, 48 hours
Procedure, shortened: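 IC50 comes from serum CCL17 measured by a TR-FRET sandwich assay (16 h at room temperature, 665/615 nm ratio). Beforehand, blood in sodium heparin was exposed to an 11-point, 3-fold compound series for 2 h at 37°C and then to 10 ng/mL IL-13 for 48 h.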

[2] = biological target: T1, STAT6 (Homo sapiens, UniProt P42226); test: STAT6 Reporter Luciferase Assay (IL-13 stimulated HaCaT keratinocyte NanoLuc reporter cells); type: cell-based; details: STAT6 NanoLuc luciferase reporter, IL-13 stimulated HaCaT keratinocyte cells; read-out: Reporter EC50
T1 construct: stably transfected HaCaT keratinocyte cell line, which expresses NanoLuc luciferase reporter gene under the transcriptional control of the STAT6 responsive promoter; endogenous in cells; host or cells: HaCaT keratinocyte reporter cell line (stably transfected with a NanoLuc reporter)
T1 sequence (P42226 1-847): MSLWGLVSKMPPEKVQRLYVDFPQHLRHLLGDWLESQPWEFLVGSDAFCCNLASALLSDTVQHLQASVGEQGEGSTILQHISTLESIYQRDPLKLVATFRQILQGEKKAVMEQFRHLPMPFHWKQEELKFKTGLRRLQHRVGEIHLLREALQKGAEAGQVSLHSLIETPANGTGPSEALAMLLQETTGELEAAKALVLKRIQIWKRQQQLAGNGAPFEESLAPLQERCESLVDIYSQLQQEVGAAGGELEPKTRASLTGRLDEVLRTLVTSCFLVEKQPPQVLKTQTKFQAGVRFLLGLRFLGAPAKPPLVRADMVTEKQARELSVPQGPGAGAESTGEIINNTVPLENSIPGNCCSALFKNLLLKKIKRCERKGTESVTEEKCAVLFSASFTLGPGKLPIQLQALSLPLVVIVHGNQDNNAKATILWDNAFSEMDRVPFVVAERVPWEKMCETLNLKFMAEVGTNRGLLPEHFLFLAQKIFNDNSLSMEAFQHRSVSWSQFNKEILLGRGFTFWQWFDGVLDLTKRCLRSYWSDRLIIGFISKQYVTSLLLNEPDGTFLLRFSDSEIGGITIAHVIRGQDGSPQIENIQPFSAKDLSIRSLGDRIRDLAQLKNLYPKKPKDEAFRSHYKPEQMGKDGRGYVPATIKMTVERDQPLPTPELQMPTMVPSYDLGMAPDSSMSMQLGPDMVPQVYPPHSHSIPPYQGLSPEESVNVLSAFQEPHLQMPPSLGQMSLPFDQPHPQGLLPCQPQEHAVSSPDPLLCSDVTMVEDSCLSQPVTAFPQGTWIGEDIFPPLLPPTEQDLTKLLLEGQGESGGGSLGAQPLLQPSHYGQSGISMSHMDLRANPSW
Procedure, shortened: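 HaCaT IL-13Ra2-promoter NanoLuc reporter; cpd 2 h 37 °C in DMEM/2% HI FBS; IL-13 0.12 nM final, 4 h; Nano-Glo luminescence.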

Row | IC50 ([1]; Homo sapiens, 48 h) [nM] | EC50 [2] [nM] | Structure (SMILES) | IC50 [1] [nM]
1 | 791 | 261 | CNC(=O)c1ccc(CNC(=O)c2nc(C3CC3)n3c2CN(c2ccc(C(=O)N(C)C)cn2)CC3)cc1 [Example 16, 3-cyclopropyl-7-(5-(dimethylcarbamoyl)pyridin-2-yl)-N-(4-(methylcarbamoyl)benzyl)-5,6,7,8-tetrahydroimidazo[1,5-a]pyrazine-1-carboxamide] | 
2 | 291 | 322 | CN(C)C(=O)Nc1ccc(CNC(=O)c2ncn3c2CN(c2ccc(C(=O)N(C)C)cn2)CC3)cc1 [Example 17, 7-(5-(dimethylcarbamoyl)pyridin-2-yl)-N-(4-(3,3-dimethylureido)benzyl)-5,6,7,8-tetrahydroimidazo[1,5-a]pyrazine-1-carboxamide] | 
3 | 1380 | 1420 | CN(C)C(=O)Nc1ccc(CNC(=O)c2n[nH]c3c2CN(c2ccc(C(=O)N(C)C)cn2)CC3)cc1 [Example 18, 5-(5-(Dimethylcarbamoyl)pyridin-2-yl)-N-(4-(3,3-dimethylureido)benzyl)-4,5,6,7-tetrahydro-1H-pyrazolo[4,3-c]pyridine-3-carboxamide] | 
4 | 3360 | > 10000 | CN(C)C(=O)Nc1ccc(CNC(=O)c2c3c(nn2C2CC2)CCN(c2ccc(C(=O)N(C)C)cn2)C3)cc1 [Example 19, 2-cyclopropyl-5-(5-(dimethylcarbamoyl)pyridin-2-yl)-N-(4-(3,3-dimethylureido)benzyl)-4,5,6,7-tetrahydro-2H-pyrazolo[4,3-c]pyridine-3-carboxamide] | 
5 | 72 | 6 | CN(C)C(=O)Nc1ccc(CNC(=O)c2nn(C3(C)CC3)c3c2CN(c2ccc(C(=O)N(C)C)cn2)CC3)cc1 [Example 20, 5-(5-(dimethylcarbamoyl)pyridin-2-yl)-N-(4-(3,3-dimethylureido)benzyl)-1-(1-methylcyclopropyl)-4,5,6,7-tetrahydro-1H-pyrazolo[4,3-c]pyridine-3-carboxamide] | 
6 | 217 | 33 | CCn1nc(C(=O)NCc2ccc(-c3ncc[nH]3)cc2)c2c1CCN(c1ccc(C(=O)N(C)C)cn1)C2 [Example 21, N-(4-(1H-imidazol-2-yl)benzyl)-5-(5-(dimethylcarbamoyl)pyridin-2-yl)-1-ethyl-4,5,6,7-tetrahydro-1H-pyrazolo[4,3-c]pyridine-3-carboxamide] | 
7 | 54 | 21 | CN(C)C(=O)Nc1ccc(CNC(=O)c2nc(C(F)(F)F)n3c2CN(c2ccc(C(=O)N(C)C)cn2)CC3)cc1 [Example 22, 7-(5-(dimethylcarbamoyl)pyridin-2-yl)-N-(4-(3,3-dimethylureido)benzyl)-3-(trifluoromethyl)-5,6,7,8-tetrahydroimidazo[1,5-a]pyrazine-1-carboxamide] | 
8 | 62 | 6 | CCn1nc(C(=O)NCc2ccc(NC(=O)N(C)C)cc2)c2c1CCN(c1ccc(-c3ncnn3C)cn1)C2 [Example 23, N-(4-(3,3-Dimethylureido)benzyl)-1-ethyl-5-(5-(1-methyl-1H-1,2,4-triazol-5-yl)pyridin-2-yl)-4,5,6,7-tetrahydro-1H-pyrazolo[4,3-c]pyridine-3-carboxamide] | 
9 | 346 | 384 | CN(C)C(=O)Nc1ccc(CNC(=O)c2nnn3c2CN(c2ccc(C(=O)N(C)C)cn2)CC3)cc1 [Example 24, 5-(5-(dimethylcarbamoyl)pyridin-2-yl)-N-(4-(3,3-dimethylureido)benzyl)-4,5,6,7-tetrahydro-[1,2,3]triazolo[1,5-a]pyrazine-3-carboxamide] | 
10 | 1490 | 164 | CN(C)C(=O)Nc1ccc(CNC(=O)c2csc3c2CN(c2ccc(C(=O)N(C)C)cn2)CC3)cc1 [Example 25, 5-(5-(dimethylcarbamoyl)pyridin-2-yl)-N-(4-(3,3-dimethylureido)benzyl)-4,5,6,7-tetrahydrothieno[3,2-c]pyridine-3-carboxamide] | 
11 | 91 | 6 | CC(C)n1nc(C(=O)NCc2ccc(NC(=O)N(C)C)cc2)c2c1CCN(c1ccc(-c3ncnn3C)cn1)C2 [Example 27, N-(4-(3,3-dimethylureido)benzyl)-1-isopropyl-5-(5-(1-methyl-1H-1,2,4-triazol-5-yl)pyridin-2-yl)-4,5,6,7-tetrahydro-1H-pyrazolo[4,3-c]pyridine-3-carboxamide] | 
12 | 313 | 46 | CN(C)C(=O)Nc1ccc(CNC(=O)c2noc3c2CN(c2ccc(C(=O)N(C)C)cn2)CC3)cc1 [Example 28, 5-(5-(dimethylcarbamoyl)pyridin-2-yl)-N-(4-(3,3-dimethylureido)benzyl)-4,5,6,7-tetrahydroisoxazolo[4,5-c]pyridine-3-carboxamide] | 
13 | 878 | 2230 | CN(C)C(=O)Nc1ccc(CNC(=O)c2cnn3c2CN(c2ccc(C(=O)N(C)C)cn2)CC3)cc1 [Example 29, 5-(5-(dimethylcarbamoyl)pyridin-2-yl)-N-(4-(3,3-dimethylureido)benzyl)-4,5,6,7-tetrahydropyrazolo[1,5-a]pyrazine-3-carboxamide] | 
14 | 87 | 5 | CCn1nc(C(=O)NCc2ccc(NC(=O)N(C)C)cc2)c2c1CCN(c1ccc(-c3nccn3C)cn1)C2 [Example 30, N-(4-(3,3-Dimethylureido)benzyl)-1-ethyl-5-(5-(1-methyl-1H-imidazol-2-yl)pyridin-2-yl)-4,5,6,7-tetrahydro-1H-pyrazolo[4,3-c]pyridine-3-carboxamide] | 
15 | 85 | 7 | CN(C)C(=O)Nc1ccc(CNC(=O)c2nn(CC(F)(F)F)c3c2CN(c2ccc(C(=O)N(C)C)cn2)CC3)cc1 [Example 31, 5-(5-(dimethylcarbamoyl)pyridin-2-yl)-N-(4-(3,3-dimethylureido)benzyl)-1-(2,2,2-trifluoroethyl)-4,5,6,7-tetrahydro-1H-pyrazolo[4,3-c]pyridine-3-carboxamide] | 
16 | 40 | 9 | CC(C)c1nc(C(=O)NCc2ccc(NC(=O)N(C)C)cc2)c2n1CCN(c1ccc(C(=O)N(C)C)cn1)C2 [Example 32, 7-(5-(dimethylcarbamoyl)pyridin-2-yl)-N-(4-(3,3-dimethylureido)benzyl)-3-isopropyl-5,6,7,8-tetrahydroimidazo[1,5-a]pyrazine-1-carboxamide] | 
17 | 35 | 2 | CC(C)n1nc(C(=O)NCc2ccc(NC(=O)N(C)C)cc2)c2c1CCN(c1ccc(C(=O)N3Cc4cccnc4C3)cn1)C2 [Example 33, 5-(5-(6,7-dihydro-5H-pyrrolo[3,4-b]pyridine-6-carbonyl)pyridin-2-yl)-N-(4-(3,3-dimethylureido)benzyl)-1-isopropyl-4,5,6,7-tetrahydro-1H-pyrazolo[4,3-c]pyridine-3-carboxamide] | 
18 | 71 | 8 | CC(C)n1nc(C(=O)NCc2ccc(NC(=O)N(C)C)cc2)c2c1CCN(c1ncc(-c3nccn3C)cn1)C2 [Example 34, N-(4-(3,3-Dimethylureido)benzyl)-1-isopropyl-5-(5-(1-methyl-1H-imidazol-2-yl)pyrimidin-2-yl)-4,5,6,7-tetrahydro-1H-pyrazolo[4,3-c]pyridine-3-carboxamide] | 
19 | 254 | 24 | CCn1nc(C(=O)NCc2ccc(NC(=O)N(C)C)cc2)c2c1CCN(c1ccc(N3CCCC3=O)cn1)C2 [Example 36, N-(4-(3,3-Dimethylureido)benzyl)-1-ethyl-5-(5-(2-oxopyrrolidin-1-yl)pyridin-2-yl)-4,5,6,7-tetrahydro-1H-pyrazolo[4,3-c]pyridine-3-carboxamide] | 
20 | 701 | 30 | CC(=O)N1CCCc2cc(N3CCc4c(c(C(=O)NCc5ccc(NC(=O)N(C)C)cc5)nn4C(C)C)C3)ccc21 [Example 37, 5-(1-Acetyl-1,2,3,4-tetrahydroquinolin-6-yl)-N-(4-(3,3-dimethylureido)benzyl)-1-isopropyl-4,5,6,7-tetrahydro-1H-pyrazolo[4,3-c]pyridine-3-carboxamide] | 

Row | Structure (SMILES) | IC50 ([1]; Homo sapiens, 48 h) [nM] | EC50 [2] [nM] | IC50 [1] [nM]
21 | CC(C)n1nc(C(=O)NCc2ccc(NC(=O)N(C)C)cc2)c2c1CCN(c1ncc(C(=O)N(C)C)cn1)C2 [Example 35, 5-(5-(Dimethylcarbamoyl)pyrimidin-2-yl)-N-(4-(3,3-dimethylureido)benzyl)-1-isopropyl-4,5,6,7-tetrahydro-1H-pyrazolo[4,3-c]pyridine-3-carboxamide] |  | 9 | 47
